Experiments:
[1] = molecular target: T1, human Pgp (Homo sapiens, UniProt P08183); assay: Inhibition of Pgp-mediated Rhodamine 123 efflux in L5178 MDR1 cells; settings: mouse T lymphoma L5178 MDR1 cells
[2] = test system: Pgp; settings: cited from earlier work
[3] = test system: human Pgp; assay: Inhibition of Pgp-mediated Rhodamine 123 efflux in L5178 MDR1 cells; settings: mouse T lymphoma L5178 MDR1 cells
[4] = molecular target: T1, human Pgp

T1 sequence (P08183 whole entry): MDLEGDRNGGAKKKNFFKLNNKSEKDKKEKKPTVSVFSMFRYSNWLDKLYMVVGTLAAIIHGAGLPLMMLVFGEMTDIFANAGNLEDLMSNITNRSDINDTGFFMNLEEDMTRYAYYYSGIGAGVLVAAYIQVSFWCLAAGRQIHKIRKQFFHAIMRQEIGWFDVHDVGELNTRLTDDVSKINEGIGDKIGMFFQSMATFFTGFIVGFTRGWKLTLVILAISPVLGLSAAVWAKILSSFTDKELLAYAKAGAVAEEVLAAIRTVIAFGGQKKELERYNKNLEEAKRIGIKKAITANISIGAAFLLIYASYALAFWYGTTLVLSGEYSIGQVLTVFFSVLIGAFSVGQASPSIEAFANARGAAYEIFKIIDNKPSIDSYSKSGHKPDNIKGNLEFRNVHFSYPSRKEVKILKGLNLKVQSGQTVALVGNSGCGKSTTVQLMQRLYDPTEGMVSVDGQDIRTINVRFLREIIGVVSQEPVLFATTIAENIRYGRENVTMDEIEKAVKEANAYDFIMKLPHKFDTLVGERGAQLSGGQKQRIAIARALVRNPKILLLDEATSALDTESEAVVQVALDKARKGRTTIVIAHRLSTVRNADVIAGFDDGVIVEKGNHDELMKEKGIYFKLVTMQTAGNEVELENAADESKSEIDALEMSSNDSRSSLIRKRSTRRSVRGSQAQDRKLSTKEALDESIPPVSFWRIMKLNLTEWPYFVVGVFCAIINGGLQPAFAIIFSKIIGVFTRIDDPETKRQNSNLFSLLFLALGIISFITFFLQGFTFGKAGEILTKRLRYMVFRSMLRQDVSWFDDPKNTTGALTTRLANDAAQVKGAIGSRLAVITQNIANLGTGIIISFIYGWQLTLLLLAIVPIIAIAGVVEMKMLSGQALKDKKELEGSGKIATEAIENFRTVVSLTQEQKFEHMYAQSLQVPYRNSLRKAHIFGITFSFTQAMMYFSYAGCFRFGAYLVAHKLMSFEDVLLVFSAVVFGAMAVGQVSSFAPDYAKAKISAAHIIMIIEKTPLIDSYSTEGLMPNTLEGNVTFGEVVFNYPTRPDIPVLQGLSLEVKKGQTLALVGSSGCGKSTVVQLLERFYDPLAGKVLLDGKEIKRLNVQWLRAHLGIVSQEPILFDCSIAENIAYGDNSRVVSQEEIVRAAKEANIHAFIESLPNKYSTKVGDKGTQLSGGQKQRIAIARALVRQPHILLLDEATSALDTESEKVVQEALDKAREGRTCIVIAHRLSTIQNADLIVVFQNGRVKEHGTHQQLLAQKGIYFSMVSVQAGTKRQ

Row | SMILES | Ability to inhibit Pgp-mediated cell efflux of R123 (in words) [1] | also measured
1 | C=CCc1ccccc1OCC(O)CNC(C)C (centres unmarked) [Alprenolol] | not effective | 
2 | CN(C)CCC=C1c2ccccc2CCc2ccccc21 [Amitriptyline] |  | Pgp inhibitor classification [2]: inhibitor
3 | CCN(CC)CCCN(c1ccccc1)C1Cc2ccccc2C1 [Aprindine] | weak inhibitors | 
4 | O=C1CCc2ccc(OCCCCN3CCN(c4cccc(Cl)c4Cl)CC3)cc2N1 [Aripiprazole] |  | Ability to inhibit Pgp-mediated cell efflux of R123 (in words) [3]: efficacious Pgp inhibitors
5 | CC1(C)S[C@@H]2[C@H](NC(=O)[C@H](C(=O)O)c3ccsc3)C(=O)N2[C@H]1C(=O)O [Ticarcillin] | not effective | 
6 | [Na+].[Na+].[Na+].[O]=[V]([O-])([O-])[O-] [Vi, Sodium orthovanadate] |  | IC50 [4]: ~700 µM

The next lines start with results.

Row | Ability to inhibit Pgp-mediated cell efflux of R123 (in words) [1] | SMILES | also measured
7 | not effective | CC(C)[C@H]1CC[C@H](C(=O)N[C@H](Cc2ccccc2)C(=O)O)CC1 [Nateglinide] | 
8 | weak inhibitors | O=C1Cc2cc(CCN3CCN(c4nsc5ccccc45)CC3)c(Cl)cc2N1 [Ziprasidone] | 

Source: publication PMC3069647 (Journal of medicinal chemistry, 2011)
